Assay results reported in ChEMBL document CHEMBL3879909, “Piperidin-4-yl azetidine derivatives as JAK1 inhibitors” (2014).

Key:
[1] = target: Tyrosine-protein kinase JAK1 (Homo sapiens, UniProt P23458); experiment: Inhibition of human N-terminal His-tagged JAK1 catalytic domain (837 to 1142 residues) expressed in baculovirus infected insect cells assessed as decrease in phosphorylation of biotinylated peptide substrate after 1 hr in presence of 1 mM ATP by HTRF method
[2] = target: Tyrosine-protein kinase JAK2 (Homo sapiens, UniProt O60674); experiment: Inhibition of human N-terminal His-tagged JAK2 catalytic domain (828 to 1132 residues) expressed in baculovirus infected insect cells assessed as decrease in phosphorylation of biotinylated peptide substrate after 1 hr in presence of 1 mM ATP by HTRF method
[3] = organism: Homo sapiens; experiment: Selectivity ratio of IC50 for human N-terminal His-tagged JAK2 catalytic domain (828 to 1132 residues) to IC50 for human N-terminal His-tagged JAK1 catalytic domain (837 to 1142 residues)

Chain of Tyrosine-protein kinase JAK2 (O60674 whole entry, the tested form may be a part): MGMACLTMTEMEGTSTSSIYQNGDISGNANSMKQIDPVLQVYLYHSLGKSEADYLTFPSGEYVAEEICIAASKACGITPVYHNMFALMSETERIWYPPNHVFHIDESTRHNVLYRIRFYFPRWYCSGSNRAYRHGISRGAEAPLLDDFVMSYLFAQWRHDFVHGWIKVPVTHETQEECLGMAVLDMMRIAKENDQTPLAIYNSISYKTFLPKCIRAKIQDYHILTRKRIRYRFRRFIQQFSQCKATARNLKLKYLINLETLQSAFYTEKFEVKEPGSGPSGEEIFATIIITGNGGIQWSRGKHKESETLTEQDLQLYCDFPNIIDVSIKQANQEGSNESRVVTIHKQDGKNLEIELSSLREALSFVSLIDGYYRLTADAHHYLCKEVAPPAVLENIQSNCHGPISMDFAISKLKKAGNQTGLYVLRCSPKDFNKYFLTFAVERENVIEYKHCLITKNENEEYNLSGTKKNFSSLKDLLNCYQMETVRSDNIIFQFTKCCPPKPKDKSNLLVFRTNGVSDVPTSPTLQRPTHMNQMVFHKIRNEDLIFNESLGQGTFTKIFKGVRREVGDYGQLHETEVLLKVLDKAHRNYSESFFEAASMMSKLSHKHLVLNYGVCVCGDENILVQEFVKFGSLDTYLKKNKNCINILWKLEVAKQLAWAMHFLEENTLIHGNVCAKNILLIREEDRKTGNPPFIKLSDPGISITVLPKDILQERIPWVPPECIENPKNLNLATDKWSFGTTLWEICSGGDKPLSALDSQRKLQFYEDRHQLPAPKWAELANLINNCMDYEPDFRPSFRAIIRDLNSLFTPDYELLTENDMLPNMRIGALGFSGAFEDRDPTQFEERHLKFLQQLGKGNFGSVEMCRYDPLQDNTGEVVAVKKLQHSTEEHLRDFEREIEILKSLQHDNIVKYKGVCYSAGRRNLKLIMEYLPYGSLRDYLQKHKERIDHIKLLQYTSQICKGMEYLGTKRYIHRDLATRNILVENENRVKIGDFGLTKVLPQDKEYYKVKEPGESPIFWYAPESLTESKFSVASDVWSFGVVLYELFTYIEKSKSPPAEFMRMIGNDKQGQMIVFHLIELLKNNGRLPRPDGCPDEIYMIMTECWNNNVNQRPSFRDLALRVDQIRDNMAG
Chain of Tyrosine-protein kinase JAK1 (P23458 whole entry, the tested form may be a part): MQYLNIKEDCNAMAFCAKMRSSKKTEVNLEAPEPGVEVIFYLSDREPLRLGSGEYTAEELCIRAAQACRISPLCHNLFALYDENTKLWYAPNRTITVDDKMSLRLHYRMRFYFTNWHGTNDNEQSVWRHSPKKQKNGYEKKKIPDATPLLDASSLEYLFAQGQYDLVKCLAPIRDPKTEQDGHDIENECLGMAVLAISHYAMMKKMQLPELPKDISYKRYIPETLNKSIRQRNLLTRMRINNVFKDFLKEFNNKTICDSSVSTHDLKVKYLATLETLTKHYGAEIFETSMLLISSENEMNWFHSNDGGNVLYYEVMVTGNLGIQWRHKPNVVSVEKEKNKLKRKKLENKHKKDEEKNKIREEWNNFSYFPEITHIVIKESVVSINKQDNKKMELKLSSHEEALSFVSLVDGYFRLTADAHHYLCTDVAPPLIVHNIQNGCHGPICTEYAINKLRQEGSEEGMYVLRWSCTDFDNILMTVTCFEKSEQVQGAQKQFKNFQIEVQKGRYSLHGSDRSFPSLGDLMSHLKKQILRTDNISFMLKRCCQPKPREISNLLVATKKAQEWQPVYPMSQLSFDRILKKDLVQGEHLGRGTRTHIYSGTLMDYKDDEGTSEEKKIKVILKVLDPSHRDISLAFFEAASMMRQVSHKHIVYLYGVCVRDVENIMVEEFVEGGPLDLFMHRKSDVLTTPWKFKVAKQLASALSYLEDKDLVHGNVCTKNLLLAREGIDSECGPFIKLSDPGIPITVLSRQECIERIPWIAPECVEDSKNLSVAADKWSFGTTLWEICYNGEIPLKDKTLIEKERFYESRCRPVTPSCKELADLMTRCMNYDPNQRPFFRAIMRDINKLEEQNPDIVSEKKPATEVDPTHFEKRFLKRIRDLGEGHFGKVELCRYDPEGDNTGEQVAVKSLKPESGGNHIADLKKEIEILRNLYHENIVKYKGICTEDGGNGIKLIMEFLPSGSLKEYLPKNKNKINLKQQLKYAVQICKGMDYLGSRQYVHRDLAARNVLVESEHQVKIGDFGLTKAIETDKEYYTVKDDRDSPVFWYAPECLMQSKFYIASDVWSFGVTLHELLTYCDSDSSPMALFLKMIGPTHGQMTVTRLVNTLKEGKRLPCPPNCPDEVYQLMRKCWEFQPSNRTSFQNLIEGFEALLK

| SMILES | IC50 [1] [µM] | IC50 [2] [µM] | Ratio IC50 [3] |
| --- | --- | --- | --- |
| N#CCC1(n2cc(-c3ccnc4[nH]ccc34)cn2)CN(C2CCN(C(=O)c3ccnc(C(F)(F)F)c3F)CC2)C1 | 0.005 to 0.02 | > 0.1 | 21.4 |
| CO[C@@H]1CN(C(=O)c2ccnc(C(F)(F)F)c2F)CC[C@@H]1N1CC(CC#N)(n2cc(-c3ncnc4[nH]ccc34)cn2)C1 (relative stereo) | ≤ 0.005 | > 0.1 | 59.2 |
| N#CCC1(n2cc(-c3ncnc4[nH]ccc34)cn2)CN(C2CCN(C(=O)Nc3cnccc3C(F)(F)F)CC2)C1 | – | – | 10.4 to 20.3 |
| N#CCC1(n2cc(-c3ncnc4[nH]ccc34)cn2)CN(C2CCN(C(=O)OCc3cc(F)cc(F)c3)CC2)C1 | – | – | 7.1 to 24.4 |
